Experimental findings from US6329378A, “Hydrazone, hydrazine and thiosemicarbazone derivatives as antifungal agents” (Anadys Pharmaceuticals, Inc., priority 2000, dated 2001) are described below.

The test system of one test is C. albicans. The test is described as follows: MIC, broth microdilution (NCCLS M27-A), C. albicans. The test is classed as cell-based, Candida albicans. The following applies: 48 hours, C. albicans ATCC 10231; for MIC C. albicans: 35° C.; for MIC: Candida albicans, ATCC10231, 35° C. How it is done: (§1) Compounds of the invention were tested for antifungal susceptibility using broth microdilution assay established by the National Committee for Clinical Laboratory Standards, in NCCLS Document M27-A, which is hereby incorporated by reference. Minimum inhibitory concentrations (MICs) and minimum fungicidal concentrations (MFCs) were measured.
(§2) Yeasts (Saccharomyces cerevisiae and Candida albicans) are cultured on SDA plates in a 35° C. incubator. Strains on SDA plates are stored at 4° C. and used as working stock cultures.
(§3) Inoculum for susceptibility testing is prepared from fresh 24 hour cultures. 5-10 colonies are scraped from the plate and suspended in three milliliters of sterile 0.85% saline (8.5 g/liter NaCl). The cell density of the solution is determined by measuring the absorbance in a spectrophotometer (Shimadzu UV-1201S UV-VIS Spectrophotometer) set at 600 nm. An absorbance value between 0.1 and 0.4 is required for an accurate reading.
(§4) For Candida albicans strains ATCC 10231, 1.0 OD600 unit is approximately 10^7 cells per ml. For Saccharomyces cerevisiae strain CTY552, 1.0 OD600 unit is slightly less than 10^7 cells per ml. Cell suspensions are diluted with the appropriate medium (typically RPMI-1640) to OD600 =0.0003 for Candida and OD600 =0.0004 for Saccharomyces. The diluted suspension contains approximately 3×10^3 cells per ml (this is a 2×concentration inoculum). Two 100 μl aliquots of this dilution are spread on SDA plates and incubated at 35° C. for 1-2 days to determine the precise number of colony forming units. An acceptable range for the inoculum (2×) is 1-5×10^3 cfu/ml (100-500 for 100 μl). Following two-fold dilution of the inoculum with compound, the final concentration of cells will be 0.5-2.5×10^3 per ml. The inoculum is kept at 4° C. and used within a few hours.
(§5) Stock solutions and concentrations tested will vary from compound to compound. In general, though, stock solutions of 12.8 mg/ml in DMSO (Sigma D-8779) are prepared. This will allow for a 128 μg/ml starting test concentration containing 1% DMSO. Stock solutions are stored at -20° C. and dilutions for antifungal testing are freshly prepared before each assay.
(§6) Stock solutions of Amphotericin B and Itraconazole are prepared at 1.6 mg/ml in DMSO. Amphotericin B is sold as a powder that is approximately 80% Amphotericin B. Stock solutions are made accordingly (2.0 mg of powder for a 1 ml solution of 1.6 mg/ml Amphotericin B).
(§7) Both of these (control and test compounds) represent 1:50 dilutions. For an assay with three fungal strains, 40 microliters of a stock solution are diluted to 2.0 ml with room temperature medium.
(§8) Antifungal susceptibility tests are setup in polystyrene, 96-well, flat bottom plates (Costar 9017). To every well in columns 2-12 is added 100 microliters of media. An electronic multichannel (12) pipettor with no tip on channel one is used. To every well in column one is added 200 microliters of diluted compound (32 μg/ml for Amphotericin B and Itraconazole controls, 256 μg/ml for test compounds, 100-fold dilution for natural product extracts). A manual multichannel (8) pipettor is then used to set up a series of 2-fold dilutions. 100 microliters is removed from each well of column one and mixed with 100 microliters in column 2. This is done successively (column two to column three etc.) to produce a set of 11 serial dilutions (column 12 is a drug free control).
(§9) To every well in two rows, 100 μl of inoculum (2×) of a single strain is added. To the final two rows on the plate (G & H), only media is added. Addition of inoculum is best accomplished using an electronic multichannel (12) pipettor. This setup (see below) creates a starting cell density of […] (100-500 per well) and drug concentration ranging from 16 μg/ml to […] for controls (Amphotericin B and Itraconazole), 128 μg/ml to 0.125 μg/ml for pure test compounds, and 200 to 204, 800-fold dilutions for natural product extracts.

Another test relates to S. serevisiae. The test is described as follows: MIC, broth microdilution (NCCLS M27-A), S. cerevisiae. The test is classed as cell-based, Saccharomyces cerevisiae. The settings on record: for MIC S. serevisiae: broth microdilution, 35° C., 48 hours, S. cerevisiae CTY552; for MIC: Saccharomyces cerevisiae, 48 h, read-out: MIC S. serevisiae. On the procedure:
as §1, §2, §3, §4, §5, §6
Stock solutions of control compounds (1.6 mg/ml, Amphotericin B or Itraconazole) are initially diluted in medium to a concentration of 32 μg/ml while stock solutions of test compounds (typically 12.8 mg/ml) are diluted to 256 μg/ml. Both of these (control and test compounds) represent 1:50 dilutions. For an assay with three fungal strains, 40 microliters of a stock solution are diluted to 2.0 ml with room temperature medium.
as §8
To every well in two rows, 100 μl of inoculum (2×) of a single strain is added. To the final two rows on the plate (G & H), only media is added. Addition of inoculum is best accomplished using an electronic multichannel (12) pipettor. […]

The subject of the next test is A. Nidulans. The test is described as follows: MIC, broth microdilution (NCCLS M27-A), A. nidulans. The format is cell-based. The settings on record: 35° C., 48 hours; for MIC: Aspergillus nidulans. On the procedure: as §1
Filamentous fungi (Aspergillus spp.) is cultured on PDA plates in a 35° C. incubator. Inoculum of Aspergillus for susceptibility testing is prepared from plates incubated at 35° C. for 5 days. Colonies are covered with 5 ml of sterile 0.85% saline (8.5 g/liter NaCl) and gently rocked for 10-15 minutes. To dislodge the conidia, an automatic pipettor is used to gently wash over the colonies. The saline solution is removed from the plate and the heavy particles are allowed to settle for 3-5 minutes. The upper suspension is removed and vortexed for 15 sec. The turbidity of the solution is determined by measuring the absorbance in a spectrophotometer (Shimadzu UV-1201S UV-VIS Spectrophotometer) set at 600 nm. An absorbance value between 0.1 and 0.4 is required for an accurate reading.
The cell suspension is diluted with the appropriate medium (typically RPMI-1640) to OD600 =0.0004. The final suspension should contain approximately 3×10^3 cfu per ml (this is a 2×concentrationinoculum). Two 100 μl aliquots of this dilution are spread on SDA plates and incubated at 35° C. for 1-2 days to determine the precise number of colony forming units. An acceptable range for the inoculum (2×) is 1-5×10^3 cfu/ml (100-500 for 100 μl). Following two-fold dilution of the inoculum with compound, the final concentration of cells will be 0.5-2.5×10^3 per ml. The inoculum is kept at 4° C. and used within a few hours.
as §5, §6, §7, §8, §9

≈ marks a conversion by molar mass, not a printed value.

On to “2-pyridyl-benzaldehyde-N-(3-methoxy-2-pyrazinyl)hydrazine [(34)]”, for which the “MIC C. albicans” value against C. albicans came to 2 µg/mL. In the test on S. serevisiae, the “MIC S. serevisiae” value was found to be 1 µg/mL. Further, the “MIC A. Nidulans” value with A. Nidulans was found to be 1 µg/mL.
With “3-carboxyl-2-hydroxybenzaldehyde-N-(3-methoxy-2-phenyl)hydrazine [(17)]”, the “MIC C. albicans” value in the test with C. albicans is over 128 µg/mL. In addition, in the test on S. serevisiae, the “MIC S. serevisiae” value is over 128 µg/mL. In addition, the “MIC A. Nidulans” value against A. Nidulans was over 128 µg/mL.
As for `COc1cc(O)c(C=NNc2nccnc2OC)c(OC)c1` [(5)], the MIC against C. albicans came to 1 µg/mL (≈ 3.29 µM); with S. serevisiae, 1 µg/mL (≈ 3.29 µM); against A. Nidulans it was 2 µg/mL (≈ 6.57 µM).
Consider `COc1nccnc1NN=Cc1cccc(O)c1O` [(6)], for which the MIC stood at 2 µg/mL (≈ 7.68 µM) in the test with C. albicans, 1 µg/mL (≈ 3.84 µM) in the test on S. serevisiae and 1 µg/mL (≈ 3.84 µM) against A. Nidulans.
Consider `COc1nccnc1NN=Cc1ccc(O)cc1O` [(7)], for which the MIC in the test with C. albicans came to 1 µg/mL (≈ 3.84 µM); with S. serevisiae, 1 µg/mL (≈ 3.84 µM); against A. Nidulans, 2 µg/mL (≈ 7.68 µM).
As to `COc1nccnc1N/N=C/c1ccc(O)c(O)c1O` [(8)], the results for the MIC against C. albicans, in the test with S. serevisiae and against A. Nidulans were 4 µg/mL (≈ 14.5 µM), 2 µg/mL (≈ 7.24 µM) and over 128 µg/mL, respectively.
In the same order, the values of `COc1nccnc1N/N=C/c1ccc2ccccc2n1` [(9)] are 8 µg/mL (≈ 28.6 µM), 8 µg/mL (≈ 28.6 µM) and 16 µg/mL (≈ 57.3 µM).
Regarding `O=C(O)c1ccc(O)c(C=NNc2ccccc2)c1` [(18), 5-carboxyl-2-hydroxybenzaldehyde-N-phenyl hydrazone], the MIC with C. albicans came out at 1 µg/mL (≈ 3.9 µM); with S. serevisiae it was 1 µg/mL (≈ 3.9 µM); against A. Nidulans it was 0.125 µg/mL (≈ 0.488 µM).
Regarding `Oc1ccccc1C=NNc1ccccc1` [(19), 2-hydroxybenzaldehyde-N-phenyl hydrazone], the figures for the MIC in the test on C. albicans, in the test on S. serevisiae and against A. Nidulans were 1 µg/mL (≈ 4.71 µM), 1 µg/mL (≈ 4.71 µM) and 0.125 µg/mL (≈ 0.589 µM), respectively.
Take `O=C(O)c1ccc(O)c(C=NNc2cccc([N+](=O)[O-])c2)c1` [(20), 5-carboxyl-2-hydroxybenzaldehyde-N-3-nitro-phenyl hydrazone]: the minimum inhibitory concentration (MIC) with C. albicans came out at 8 µg/mL (≈ 26.6 µM); in the test on S. serevisiae, 16 µg/mL (≈ 53.1 µM); with A. Nidulans it was 2 µg/mL (≈ 6.64 µM).
In the same order, the values of `O=C(O)c1ccc(O)c(C=NNc2ccccc2OC(F)(F)F)c1` [(21), 5-carboxyl-2-hydroxybenzaldehyde-N-2-trifluoromethyloxy-phenyl hydrazone] are 2 µg/mL (≈ 5.88 µM), 1 µg/mL (≈ 2.94 µM) and 1 µg/mL (≈ 2.94 µM).
For `O=C(O)c1ccc(O)c(C=NNc2ccccc2C(=O)O)c1` [(22), 5-carboxyl-2-hydroxybenzaldehyde-N-2-carboxyl-phenyl hydrazone], in that order: over 64 µg/mL, over 64 µg/mL and over 64 µg/mL.
For `O=C(O)c1ccc(O)c(C=NNc2cccc(F)c2)c1` [(23), 5-carboxyl-2-hydroxybenzaldehyde-N-3-fluorophenyl hydrazone], in that order: 2 µg/mL (≈ 7.29 µM), 2 µg/mL (≈ 7.29 µM) and 0.125 µg/mL (≈ 0.456 µM).
In the case of `O=C(O)c1ccc(O)c(C=NNc2ccccc2F)c1` [(24), 5-carboxyl-2-hydroxybenzaldehyde-N-2-fluoro-phenyl hydrazone], the figures for the MIC against C. albicans, in the test on S. serevisiae and with A. Nidulans were 0.25 µg/mL (≈ 0.912 µM), 0.5 µg/mL (≈ 1.82 µM) and 0.063 µg/mL (≈ 0.23 µM), respectively.
For `O=C(O)c1ccc(O)c(C=NNc2ccccc2Br)c1` [(25), 5-carboxyl-2-hydroxybenzaldehyde-N-2-bromophenyl hydrazone], in that order: 2 µg/mL (≈ 5.97 µM), 2 µg/mL (≈ 5.97 µM) and 1 µg/mL (≈ 2.98 µM).
In the same order, the values of `O=C(O)c1ccc(O)c(C=NNc2ccccc2Cl)c1` [(26), 5-carboxyl-2-hydroxybenzaldehyde-N-2-chlorophenyl hydrazone] are 2 µg/mL (≈ 6.88 µM), 1 µg/mL (≈ 3.44 µM) and 0.5 µg/mL (≈ 1.72 µM).
With `Cc1cccc(NN=Cc2cc(C(=O)O)ccc2O)c1` [(27), 5-carboxyl-2-hydroxybenzaldehyde-N-3-methyl-phenyl hydrazone], the values for the MIC with C. albicans, with S. serevisiae and in the test on A. Nidulans were 1 µg/mL (≈ 3.7 µM), 1 µg/mL (≈ 3.7 µM) and 0.25 µg/mL (≈ 0.925 µM), respectively.
With `COc1ccccc1NN=Cc1cc(C(=O)O)ccc1O` [(28), 5-carboxyl-2-hydroxybenzaldehyde-N-2-methoxy-phenyl hydrazone], the MIC against C. albicans was 1 µg/mL (≈ 3.49 µM); in the test on S. serevisiae, 1 µg/mL (≈ 3.49 µM); against A. Nidulans, 0.25 µg/mL (≈ 0.873 µM).
With `Cc1c(Cl)cccc1NN=Cc1cc(C(=O)O)ccc1O` [(29), 5-carboxyl-2-hydroxybenzaldehyde-N-3-chloro-2-methyl-phenyl hydrazone], the MIC against C. albicans, in the test with S. serevisiae and in the test with A. Nidulans was 1 µg/mL (≈ 3.28 µM) each time.
As for `O=C(O)c1ccc(O)c(C=NNc2cccc(Cl)c2)c1` [(30), 5-carboxyl-2-hydroxybenzaldehyde-N-3-chloro-phenyl hydrazone], the minimal inhibitory concentration (MIC) against C. albicans was found to be 2 µg/mL (≈ 6.88 µM); in the test on S. serevisiae, 1 µg/mL (≈ 3.44 µM); in the test on A. Nidulans, 0.5 µg/mL (≈ 1.72 µM).
For `Oc1ccccc1CNNc1ccccc1` [(32)], in that order: 1 µg/mL (≈ 4.67 µM), 2 µg/mL (≈ 9.33 µM) and 0.125 µg/mL (≈ 0.583 µM).
For `COc1nccnc1NNCc1ccccc1O` [(33)], in that order: 2 µg/mL (≈ 8.12 µM), 1 µg/mL (≈ 4.06 µM) and 4 µg/mL (≈ 16.2 µM).
In the same order, the values of `FC(F)(F)c1cc(NC(=S)N/N=C/c2ccccn2)cc(C(F)(F)F)c1` [(37)] are 0.5 µg/mL (≈ 1.27 µM), 1 µg/mL (≈ 2.55 µM) and 1 µg/mL (≈ 2.55 µM).
Regarding `Fc1ccc(NC(=S)N/N=C/c2ccccn2)cc1` [(39)], the MIC amounted to 2 µg/mL (≈ 7.29 µM) in the test on C. albicans, 2 µg/mL (≈ 7.29 µM) with S. serevisiae and 4 µg/mL (≈ 14.6 µM) against A. Nidulans.
Consider “N-[(4-dimethylamino)sulfonyl-N-piperidyl)phenyl)]-2-[(E)-(4-benzyloxy-2-hydroxyphenyl)methylidene]-1-hydrazonecarbothiamide [(52)]”, for which, in the test with C. albicans, the “MIC C. albicans” value was over 64 µg/mL. The “MIC A. Nidulans” value against A. Nidulans was over 64 µg/mL.
